According to PubChem BioAssay (NCI):
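Five compound concentrations were applied to cells in 96-well plates for 48 hours; endpoints were derived by simple linear interpolation of the resulting dose-response curve. Abbreviation: GI50, concentration required for 50% inhibition of growth. TGI denotes the concentration required for complete inhibition of growth.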

Tests used:
Test in all cases: inhibition of tumour cell growth, NCI panel, 48 h
[1] = tested on: SNB-19 CNS
[2] = tested on: SF-539 CNS
[3] = tested on: HCC-2998 colon
[4] = tested on: CAKI-1 renal
[5] = tested on: UACC-257 melanoma
[6] = tested on: OVCAR-8 ovarian
[7] = tested on: NCI-H23 lung
[8] = tested on: HCT-116 colon
[9] = tested on: HS 578T breast
[10] = tested on: UO-31 renal
[11] = tested on: HL-60(TB) leukemia
[12] = tested on: 786-0 renal
[13] = tested on: U251 CNS
[14] = tested on: TK-10 renal
[15] = tested on: SF-295 CNS
[16] = tested on: SNB-75 CNS
[17] = tested on: MDA-MB-435
[18] = tested on: RXF 393 renal
[19] = tested on: NCI/ADR-RES ovarian
[20] = tested on: CCRF-CEM leukemia
[21] = tested on: OVCAR-4 ovarian
[22] = tested on: UACC-62 melanoma
[23] = tested on: DU-145 prostate
[24] = tested on: NCI-H522 lung
[25] = tested on: ACHN renal
[26] = tested on: RPMI-8226 leukemia
[27] = tested on: K-562 leukemia
[28] = tested on: EKVX NSCLC
[29] = tested on: NCI-H460 lung
[30] = tested on: M14 melanoma
[31] = tested on: A498 renal
[32] = tested on: HCT-15 colon
[33] = tested on: OVCAR-3 ovarian
[34] = tested on: MCF7 breast
[35] = tested on: MALME-3M melanoma
[36] = tested on: SR leukemia
[37] = tested on: HT29 colon
[38] = tested on: T-47D breast
[39] = tested on: SK-MEL-28 melanoma
[40] = tested on: A549 NSCLC
[41] = tested on: SN12C renal
[42] = tested on: BT-549 breast
[43] = tested on: SW-620 colon
[44] = tested on: SK-OV-3 ovarian
[45] = tested on: NCI-H226 lung
[46] = tested on: SK-MEL-2 melanoma
[47] = tested on: KM12 colon
[48] = tested on: MOLT-4 leukemia
[49] = tested on: SK-MEL-5 melanoma
[50] = tested on: HOP-62 NSCLC
[51] = tested on: MDA-MB-231 breast
[52] = tested on: SF-268 CNS
[53] = tested on: LOX IMVI melanoma
[54] = tested on: COLO 205 colon
[55] = tested on: PC-3 prostate
[56] = tested on: OVCAR-5 ovarian
[57] = tested on: HOP-92 NSCLC
[58] = tested on: IGROV1 ovarian

COc1ccc(NC(=O)n2nc(/C=C\c3ccc(O)c(OC)c3)cc2/C=C\c2ccc(O)c(OC)c2)cc1
GI50 [1]: 5.28 µM | TGI [1]: 86.7 µM | GI50 [2]: 2.35 µM | TGI [2]: 13.6 µM | GI50 [3]: 5.78 µM | TGI [3]: > 100 µM | GI50 [4]: 3.6 µM | TGI [4]: > 100 µM | GI50 [5]: 16.7 µM | TGI [5]: 64.8 µM | GI50 [6]: 5.32 µM | TGI [6]: 59.9 µM | GI50 [7]: 3.81 µM | TGI [7]: 63.8 µM | GI50 [8]: 3.22 µM | TGI [8]: 42.9 µM | GI50 [9]: 6.77 µM | TGI [9]: 61.9 µM | GI50 [10]: 1.52 µM | TGI [10]: 36.4 µM | GI50 [11]: 2.55 µM | TGI [11]: 6.69 µM | GI50 [12]: 4 µM | TGI [12]: 24.3 µM | GI50 [13]: 3.55 µM | TGI [13]: 20.9 µM | GI50 [14]: 10.2 µM | TGI [14]: 95.3 µM | GI50 [15]: 6.25 µM | TGI [15]: 53.2 µM | GI50 [16]: 2.35 µM | TGI [16]: 16.3 µM | GI50 [17]: 1.25 µM | TGI [17]: 4.68 µM | GI50 [18]: 3.02 µM | TGI [18]: 8.87 µM | GI50 [19]: 4.28 µM | TGI [19]: > 100 µM | GI50 [20]: 2.34 µM | TGI [20]: 32.7 µM | GI50 [21]: 5.72 µM | TGI [21]: 90.7 µM | GI50 [22]: 2.14 µM | TGI [22]: 6.91 µM | GI50 [23]: 3.99 µM | TGI [23]: 24.6 µM | GI50 [24]: 1.76 µM | TGI [24]: 12.7 µM | GI50 [25]: 4.18 µM | TGI [25]: > 100 µM | GI50 [26]: 3.38 µM | TGI [26]: 29.2 µM | GI50 [27]: 2.86 µM | TGI [27]: 16.9 µM | GI50 [28]: 6.62 µM | TGI [28]: 83.7 µM | GI50 [29]: 4.24 µM | TGI [29]: 31.4 µM | GI50 [30]: 3.15 µM | TGI [30]: 41.5 µM | GI50 [31]: 17.2 µM | TGI [31]: 56.4 µM | GI50 [32]: 2.98 µM | TGI [32]: > 100 µM | GI50 [33]: 2.98 µM | TGI [33]: 8.4 µM | GI50 [34]: 3.03 µM | TGI [34]: 17 µM | GI50 [35]: 3.66 µM | TGI [35]: 38.6 µM | GI50 [36]: 1.52 µM | TGI [36]: 12.8 µM | GI50 [37]: 3.52 µM | TGI [37]: 11 µM | GI50 [38]: 3.68 µM | TGI [38]: 25.8 µM | GI50 [39]: 3.52 µM | TGI [39]: 92.7 µM | GI50 [40]: 5.5 µM | TGI [40]: 97.9 µM | GI50 [41]: 3.05 µM | TGI [41]: 33.7 µM | GI50 [42]: 2.49 µM | TGI [42]: 29.5 µM | GI50 [43]: 5.51 µM | TGI [43]: 61.6 µM | GI50 [44]: 3.66 µM | TGI [44]: 27.5 µM | GI50 [45]: 10.7 µM | TGI [45]: 78.6 µM | GI50 [46]: 3.23 µM | TGI [46]: 18.1 µM | GI50 [47]: 3.19 µM | TGI [47]: 20.7 µM | GI50 [48]: 2.87 µM | TGI [48]: 13.3 µM | GI50 [49]: 3.67 µM | TGI [49]: 16.1 µM | GI50 [50]: 3.65 µM | TGI [50]: 42.8 µM | GI50 [51]: 4.94 µM | TGI [51]: 83.5 µM | GI50 [52]: 3.21 µM | TGI [52]: 36.4 µM | GI50 [53]: 3.95 µM | TGI [53]: > 100 µM | GI50 [54]: 16.2 µM | TGI [54]: 44.3 µM | GI50 [55]: 5.11 µM | TGI [55]: > 100 µM | GI50 [56]: 18.8 µM | TGI [56]: 54.1 µM | GI50 [57]: 7.77 µM | TGI [57]: > 100 µM | GI50 [58]: 4.49 µM | TGI [58]: 57 µM
